The term solubility denotes how much of the substance goes into solution per volume.

Converted amounts (≈) assume the structure as drawn. Where a name gives a salt, the structure may show the parent alone.

Experimental findings from US5158770A, “Aqueous solution containing ginkgo leaf extract” (Freund Industrial Co., Ltd., priority 1989, dated 1992) are described below.

The nature of data set [1]: Solubility Test-1: dissolution of ginkgo leaf extract dry powder in aqueous solution of the compound. The class given is physicochemical. On the set-up: key: .largecircle.: dissolved to form a transparent aqueous solution; X: insoluble. To be noted: 5 g compound in 100 ml water at 20° C., 10 g ginkgo leaf extract, shaken 10 minutes. The procedure:
To each aqueous solution was added 10 g of dry powder of the ginkgo leaf extract and shaken for 10 minutes to observe the dissolution state.

A further data set in a line: physchem. As to conditions: water.
A short description of data set [2]: Solubility of the organic/inorganic compound in water.

With `CC(C)(CO)[C@@H](O)C(=O)NCCC(=O)O` [Calcium pantothenate], in data set [1], the Dissolution state entry was “.largecircle”.
For the molecule `N#CN=C(N)N` [Dicyandiamide], in data set [1], the Dissolution state result is reported as “X”. This molecule also returned a solubility in “physchem” of 32 mg/mL (≈ 381 mM).
In the case of `OCC(O)CO` [Glycerin], the Dissolution state entry in data set [1] was “X”.
The molecule `Cl.N[C@@H](Cc1c[nH]cn1)C(=O)O` [Histidine hydrochloride] displayed a solubility in data set [2] of 420 mg/mL.
Take `CC[C@H](C)[C@H](N)C(=O)O` [Isoleucine]: the concentration in solution in the data set “physchem” (solubility) came to 38 mg/mL (≈ 290 mM).
As to `CCCCCCCCCCCC[N+](C)(C)C.[Cl-]` [Lauryltrimethylammonium chloride, Lauryltrimethyl-ammonium chloride], in data set [1], the Dissolution state entry is given as “.largecircle”. The solubility in the data set “physchem” was found to be 760 mg/mL.
As to `CSCC[C@H](N)C(=O)O` [Methionine], the Dissolution state entry in data set [1] is listed as “X”. The same molecule registered a solubility in data set [2] of 33 mg/mL (≈ 221 mM).
For the molecule `NC(=O)c1cccnc1` [Nicotinic acid amide], the Dissolution state entry in data set [1] is “.largecircle”. In addition, the solubility in data set [2] was 500 mg/mL (≈ 4090 mM).
`O=C(O)c1cccnc1` [Nicotinic acid]: in data set [1], the Dissolution state result is on record as “X”. The solubility in data set [2] came out at 16 mg/mL (≈ 130 mM).
With `Cc1ncc(CO)c(CO)c1O.Cl` [Pyridoxine hydrochloride], the Dissolution state entry in data set [1] is listed as “.largecircle”. Moreover, the solubility in “physchem” turned out to be 190 mg/mL.
`Oc1cccc(O)c1O` [Pyrogallol]: the solubility in the data set “physchem” was 625 mg/mL (≈ 4960 mM).
As to `Cc1cc2nc3c(=O)[nH]c(=O)nc-3n(C[C@H](O)[C@H](O)[C@H](O)CO)c2cc1C` [Riboflavin], the Dissolution state result in data set [1] is on record as “X”. This molecule displayed a solubility in data set [2] of 0.1 mg/mL (≈ 0.266 mM).
On the same counts, the results for `OC[C@@H](O)[C@@H](O)[C@H](O)[C@@H](O)CO` [Sorbitol] are “X” and 720 mg/mL (≈ 3950 mM).
Consider `OC[C@H]1O[C@@](CO)(O[C@H]2O[C@H](CO)[C@@H](O)[C@H](O)[C@H]2O)[C@@H](O)[C@@H]1O` [Sucrose], for which, in data set [1], the Dissolution state result is reported as “X”. The molecule also gave a solubility in the data set “physchem” of 664 mg/mL (≈ 1940 mM).
The molecule `NCCS(=O)(=O)O` [Taurine] registered a solubility in the data set “physchem” of 90 mg/mL (≈ 719 mM).
With `Cc1ncc(C[n+]2csc(CCO)c2C)c(N)n1` [Thiamine hydrochloride], the Dissolution state entry in data set [1] is listed as “.largecircle”. Besides, the solubility in data set [2] was found to be 1000 mg/mL.
In the case of `C[C@@H](O)[C@H](N)C(=O)O` [Threonine], the Dissolution state entry in data set [1] was “.largecircle”.
On the same count and under the same terms, as for `NC(N)=O` [Urea], the entry is “.largecircle”.
With `CC(C)[C@H](N)C(=O)O` [Valine], the solubility in “physchem” amounted to 85 mg/mL (≈ 726 mM).
